molecular target: T1, human mPGES-1 (Homo sapiens, UniProt O14684); test: Microsomal prostaglandin E synthase biochemical assay; conditions: microsome preparation containing human mPGES-1; PGH2 10.8 μM, GSH 2.5 mM, pH 6.8; PGE2 by HTRF; average of at least n=2
T1 sequence (O14684 1-152): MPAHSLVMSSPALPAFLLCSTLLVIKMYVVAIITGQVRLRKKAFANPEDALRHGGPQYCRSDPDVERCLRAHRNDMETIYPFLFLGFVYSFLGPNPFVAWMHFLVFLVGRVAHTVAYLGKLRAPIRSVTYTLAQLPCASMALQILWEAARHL
Outline: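 Human mPGES-1 microsomes at 2 μg/mL were pre-incubated 15 min with compound (60 μM to 0.002 μM) in 50 mM potassium phosphate pH 6.8 with 2.5 mM GSH. The reaction was started with 10.8 μM PGH2 and stopped after 1 minute with acidic ferric chloride/citrate. PGE2 was quantified by HTRF; IC50 is the mean of at least 2 runs.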

SMILES	IC50
NS(=O)(=O)c1cc(F)ccc1NS(=O)(=O)/C=C/c1ccccc1C(F)(F)F [Example 100, 5-Fluoro-2-[[(E)-2-[2-(trifluoromethyl)phenyl]ethenyl]sulfonylamino]-benzenesulfonamide]	4 µM
NS(=O)(=O)c1cc(F)ccc1NS(=O)(=O)/C=C/c1ccc(Br)cc1 [Example 102, 2-[[(E)-2-(4-Bromophenyl)ethenyl]sulfonylamino]-5-fluoro-benzenesulfonamide]	0.85 µM
NS(=O)(=O)c1ccccc1NS(=O)(=O)/C=C/c1c(F)cccc1F [Example 103, 2-[[(E)-2-(2,6-Difluorophenyl)ethenyl]sulfonylamino]benzenesulfonamide]	9.2 µM
CC(CS(=O)(=O)Nc1ccccc1S(N)(=O)=O)c1ccc(Cl)cc1 (stereo not drawn) [Example 108, 2-[2-(4-Chlorophenyl)propylsulfonylamino]benzenesulfonamide]	4.9 µM
COc1ccccc1CCS(=O)(=O)Nc1ccccc1S(N)(=O)=O [Example 109, 2-[2-(2-Methoxyphenyl)ethylsulfonylamino]benzenesulfonamide]	6.1 µM
NS(=O)(=O)c1ccccc1NS(=O)(=O)CCc1ccc2ccccc2c1 [Example 110, 2-(2-Naphthalen-2-ylethylsulfonylamino)benzenesulfonamide]	0.49 µM
COc1ccc(Cl)cc1-c1cccc(S(=O)(=O)Nc2ccccc2S(N)(=O)=O)c1 [Example 115, 3-(5-Chloro-2-methoxy-phenyl)-N-(2-sulfamoylphenyl)benzenesulfonamide]	2.6 µM
N#Cc1cccc(-c2cccc(S(=O)(=O)Nc3ccccc3S(N)(=O)=O)c2)c1 [Example 116, 2-[[3-(3-Cyanophenyl)phenyl]sulfonylamino]benzenesulfonamide]	1.7 µM
N#Cc1ccc(-c2cccc(S(=O)(=O)Nc3ccccc3S(N)(=O)=O)c2)cc1 [Example 117, 2-[[3-(4-Cyanophenyl)phenyl]sulfonylamino]benzenesulfonamide]	1.3 µM

More lines, in order of falling IC50, values ahead:

IC50	SMILES
6.1 µM	NS(=O)(=O)c1ccccc1NS(=O)(=O)Cc1ccc(Cl)cc1 [Example 112, 2-[(4-Chlorophenyl)methylsulfonylamino]benzenesulfonamide]
4.6 µM	NS(=O)(=O)c1ccccc1NS(=O)(=O)/C=C/c1ccccc1C(F)(F)F [Example 104, 2-[[(E)-2-[2-(Trifluoromethyl)phenyl]ethenyl]sulfonylamino]benzenesulfonamide]
1.6 µM	NS(=O)(=O)c1cc(F)ccc1NS(=O)(=O)/C=C/c1ccc(C(F)(F)F)cc1 [Example 101, 5-Fluoro-2-[[(E)-2-[4-(trifluoromethyl)phenyl]ethenyl]sulfonylamino]-benzenesulfonamide]
0.83 µM	NS(=O)(=O)c1ccccc1NS(=O)(=O)c1cccc(-c2cc(F)cc(F)c2)c1 [Example 114, 2-[[3-(3,5-difluorophenyl)phenyl]sulfonylamino]benzenesulfonamide]
0.76 µM	NS(=O)(=O)c1ccc(F)cc1NS(=O)(=O)CCc1ccc2ccccc2c1 [Example 111, 4-Fluoro-2-(2-naphthalen-2-ylethylsulfonylamino)benzenesulfonamide]
0.67 µM	NS(=O)(=O)c1ccccc1NS(=O)(=O)/C=C/c1ccc(C(F)(F)F)cc1 [Example 105, 2-[[(E)-2-[4-(Trifluoromethyl)phenyl]ethenyl]sulfonylamino]benzenesulfonamide]
0.48 µM	NS(=O)(=O)c1ccccc1NS(=O)(=O)c1cccc(-c2cccc(Cl)c2Cl)c1 [Example 113, 2-[[3-(2,3-Dichlorophenyl)phenyl]sulfonylamino]benzenesulfonamide]
0.14 µM	NS(=O)(=O)c1ccccc1NS(=O)(=O)CCc1ccc(Br)cc1 [Example 107, 2-[(E)-2-(4-Bromophenyl)ethylsulfonylamino]benzenesulfonamide]
0.074 µM	NS(=O)(=O)c1ccccc1NS(=O)(=O)/C=C/c1ccc(Br)cc1 [Example 106, 2-[[(E)-2-(4-Bromophenyl)ethenyl]sulfonylamino]benzenesulfonamide]
